Results published in patent US6720341B2, “Preventives/remedies for kidney diseases” (Mitsubishi Pharma Corporation, priority 2000, dated 2004).

Test system: renal interstitial fibrosis model mice
Assay: Action in renal interstitial fibrosis model mice due to unilateral ureteral ligation
Format: in vivo
Protocol: Unilateral ureteral ligation mice were prepared according to the reported method (Kidney Int. 54, 110-119, (1998)). Male BL6/C3H F1 mice (6-week-old, body weight 25 g-30 g) were anesthetized with pentobarbital and subjected to median incision. Thereafter, left ureter was detached and ligated at two points with silk thread. Two models were prepared, and 10 mg/kg of Y-27632 was orally administered (administration with drinking water) to one group for consecutive days from 2 days prior to the operation. Ten days postoperation, the kidney on the ureter ligation side was removed, fixed with 4% paraformaldehyde and prepared into specimen, for staining, which were subjected to Masson trichrome staining. The level of renal interstitial fibrosis was calculated by image analysis of the area ratio (interstitium cortex area ratio:%) of the portion stained blue (fibrosis) relative to the entire sight. (Results)

`C[C@@H](N)[C@H]1CC[C@H](C(=O)Nc2ccncc2)CC1` [Compound Y-27632, (+)-trans-4-(1-aminoethyl)-1-(4-pyridylcarbamoyl)cyclohexane 2HCl.1H2O] was tested, and the “level of renal interstitial fibrosis” value (10 mg/kg orally, against non-administration group, p < 0.01 (t-test)) was “significantly suppressed”, the “portion stained blue (fibrosis) in Masson trichrome stained kidney specimen” value (FIG. 1B, Y-27632 administration group, 10 mg/kg orally, ten days postoperation) was “scarcely detected” and the “Area ratio of interstitium cortex (Fibrosis): % (average value ± SD)” value (unilateral ureteral ligation mice, 10 mg/kg orally (with drinking water) from 2 days prior to operation, kidney removed ten days postoperation, Masson trichrome staining, image analysis, n = 4) was 7.31 ± 3.11 %.
